Assay results as given in the NIST ThermoML archive (doi:10.1016/j.jct.2017.10.013).
Where “and” joins values, the source holds several entries; their conditions need not be identical. Equal values may be shown once.

How the values were obtained:
[1] = for molar entropy: 101.33 kPa, Vacuum adiabatic calorimetry; for Triple point temperature: Adiabatic calorimetry
[2] = molar heat capacity at constant pressure; settings: 101.33 kPa, Vacuum adiabatic calorimetry

[Ho+3].[Ho+3].[Se-2].[Se-2].[Se-2] [holmium selenide (Ho2Se3)]
Settings | molar entropy, [1] [J/K/mol] | molar heat capacity at constant pressure, [2]
4.75 K, Crystal 3 | – | 4.433 J/K/mol
5 K, Crystal 3 | 1.64 | 5.229 J/K/mol
5.01 K, Crystal 3 | – | 4.889 J/K/mol
5.32 K, Crystal 3 | – | 7.582 J/K/mol
6.03 K, Crystal 2 | 3.189 | 12 J/K/mol and 11.86 J/K/mol
6.03 K, Crystal 3 | 3.189 | 11.86 J/K/mol and 12 J/K/mol
7 K, Crystal 2 | – | 10.5 J/K/mol
7.23 K, Crystal 2 | – | 9.963 J/K/mol
8 K, Crystal 2 | – | 6.9 J/K/mol
8.62 K, Crystal 2 | – | 9.268 J/K/mol
9 K, Crystal 2 | – | 7.3 J/K/mol
10 K, Crystal 2 | 8.227 | 8.4 J/K/mol
10.31 K, Crystal 2 | – | 9.187 J/K/mol
10.68 K, Crystal 2 | – | 9.794 J/K/mol
11.33 K, Crystal 2 | – | 10.14 J/K/mol
12.42 K, Crystal 2 | – | 11.01 J/K/mol
13.07 K, Crystal 2 | – | 11.54 J/K/mol
14.47 K, Crystal 2 | – | 12.75 J/K/mol
15 K, Crystal 2 | 12.67 | 13.14 J/K/mol
16.86 K, Crystal 2 | – | 14.62 J/K/mol
20 K, Crystal 2 | 17.04 | 17.39 J/K/mol
20.03 K, Crystal 2 | – | 17.51 J/K/mol
22.71 K, Crystal 2 | – | 19.72 J/K/mol
25 K, Crystal 2 | 21.4 | 22.07 J/K/mol
25.13 K, Crystal 2 | – | 22.18 J/K/mol
28.04 K, Crystal 2 | – | 25.54 J/K/mol
30 K, Crystal 2 | 25.92 | 27.86 J/K/mol
31.2 K, Crystal 2 | – | 29.55 J/K/mol
34.35 K, Crystal 2 | – | 34.03 J/K/mol
35 K, Crystal 2 | 30.74 | 34.94 J/K/mol
37.49 K, Crystal 2 | – | 38.79 J/K/mol
40 K, Crystal 2 | 35.91 | 42.81 J/K/mol
40.37 K, Crystal 2 | – | 43.37 J/K/mol
43.16 K, Crystal 2 | – | 48 J/K/mol
45 K, Crystal 2 | 41.42 | 50.85 J/K/mol
46.66 K, Crystal 2 | – | 53.47 J/K/mol
50 K, Crystal 2 | 47.18 | 58.65 J/K/mol
51.18 K, Crystal 2 | – | 60.48 J/K/mol
55.76 K, Crystal 2 | – | 66.98 J/K/mol
59.76 K, Crystal 2 | – | 72.46 J/K/mol
60 K, Crystal 2 | 59.16 | 72.86 J/K/mol
63.99 K, Crystal 2 | – | 77.76 J/K/mol
68.39 K, Crystal 2 | – | 82.55 J/K/mol
70 K, Crystal 2 | 71.3 | 84.33 J/K/mol
72.45 K, Crystal 2 | – | 86.7 J/K/mol
76.57 K, Crystal 2 | – | 90.48 J/K/mol
80 K, Crystal 2 | 83.16 | 93.16 J/K/mol
80.18 K, Crystal 2 | – | 93.23 J/K/mol
85.83 K, Crystal 2 | – | 97.43 J/K/mol
90 K, Crystal 2 | 94.54 | 99.99 J/K/mol
91.8 K, Crystal 2 | – | 101 J/K/mol
97.35 K, Crystal 2 | – | 103.9 J/K/mol
100 K, Crystal 2 | 105.4 | 105.2 J/K/mol
102.86 K, Crystal 2 | – | 106.2 J/K/mol
108.72 K, Crystal 2 | – | 108.5 J/K/mol
110 K, Crystal 2 | 115.6 | 109.2 J/K/mol
114.93 K, Crystal 2 | – | 110.9 J/K/mol
120 K, Crystal 2 | 125.2 | 112.4 J/K/mol
121.18 K, Crystal 2 | – | 112.4 J/K/mol
127.91 K, Crystal 2 | – | 114.2 J/K/mol
130 K, Crystal 2 | 134.3 | 114.8 J/K/mol
135.11 K, Crystal 2 | – | 115.7 J/K/mol
140 K, Crystal 2 | 142.9 | 116.5 J/K/mol
142.05 K, Crystal 2 | – | 116.8 J/K/mol
148.79 K, Crystal 2 | – | 117.9 J/K/mol
150 K, Crystal 2 | 151 | 117.9 J/K/mol
155.35 K, Crystal 2 | – | 118.6 J/K/mol
160 K, Crystal 2 | 158.6 | 119 J/K/mol
161.76 K, Crystal 2 | – | 119.2 J/K/mol
168.04 K, Crystal 2 | – | 119.9 J/K/mol
170 K, Crystal 2 | 165.9 | 119.9 J/K/mol
174.8 K, Crystal 2 | – | 120.3 J/K/mol
180 K, Crystal 2 | 172.7 | 120.8 J/K/mol
182.04 K, Crystal 2 | – | 120.9 J/K/mol
189.15 K, Crystal 2 | – | 121.4 J/K/mol
190 K, Crystal 2 | 179.3 | 121.5 J/K/mol
196.14 K, Crystal 2 | – | 122.1 J/K/mol
200 K, Crystal 2 | 185.5 | 122.1 J/K/mol
203.04 K, Crystal 2 | – | 122.2 J/K/mol
209.83 K, Crystal 2 | – | 122.9 J/K/mol
210 K, Crystal 2 | 191.5 | 122.8 J/K/mol
216.54 K, Crystal 2 | – | 123.2 J/K/mol
217.14 K, Crystal 2 | – | 123.4 J/K/mol
220 K, Crystal 2 | 197.3 | 123.6 J/K/mol
220.38 K, Crystal 2 | – | 123.3 J/K/mol
222.96 K, Crystal 2 | – | 123.9 J/K/mol
223.16 K, Crystal 2 | – | 124 J/K/mol
224.88 K, Crystal 2 | – | 124.3 J/K/mol
226.8 K, Crystal 2 | – | 124.9 J/K/mol
228.4 K, Crystal 1 | 201.9 | 125 J/K/mol and 125.2 J/K/mol
228.4 K, Crystal 2 | 201.9 | 125.2 J/K/mol and 125 J/K/mol
229.68 K, Crystal 1 | – | 124.4 J/K/mol
229.7 K, Crystal 1 | – | 124.4 J/K/mol
230 K, Crystal 1 | 202.8 | 124.3 J/K/mol
230.95 K, Crystal 1 | – | 123.6 J/K/mol
232.22 K, Crystal 1 | – | 122.9 J/K/mol
233.8 K, Crystal 1 | – | 123.6 J/K/mol
235.69 K, Crystal 1 | – | 122.7 J/K/mol
236.16 K, Crystal 1 | – | 123.1 J/K/mol
238.19 K, Crystal 1 | – | 123.1 J/K/mol
240 K, Crystal 1 | 208 | 123.1 J/K/mol
241.31 K, Crystal 1 | – | 123.4 J/K/mol
242.82 K, Crystal 1 | – | 122.7 J/K/mol
244.42 K, Crystal 1 | – | 123.3 J/K/mol
249.67 K, Crystal 1 | – | 123.4 J/K/mol
250 K, Crystal 1 | 213 | 123.4 J/K/mol
256.45 K, Crystal 1 | – | 123.6 J/K/mol
260 K, Crystal 1 | 217.9 | 123.6 J/K/mol
263.41 K, Crystal 1 | – | 123.5 J/K/mol
270 K, Crystal 1 | 222.6 | 123.7 J/K/mol
270.54 K, Crystal 1 | – | 123.7 J/K/mol
274.01 K, Crystal 1 | – | 123.6 J/K/mol
276.98 K, Crystal 1 | – | 124 J/K/mol
280 K, Crystal 1 | 227.1 | 123.8 J/K/mol
280.45 K, Crystal 1 | – | 123.7 J/K/mol
284.65 K, Crystal 1 | – | 124 J/K/mol
289.2 K, Crystal 1 | – | 123.9 J/K/mol
290 K, Crystal 1 | 231.4 | 123.9 J/K/mol
293.71 K, Crystal 1 | – | 123.6 J/K/mol
298.15 K, Crystal 1 | 234.8 | 123.9 J/K/mol
298.18 K, Crystal 1 | – | 123.9 J/K/mol
300 K, Crystal 1 | 235.6 | 123.9 J/K/mol
302 K, Crystal 1 | 236.4 | 123.9 J/K/mol
302.6 K, Crystal 1 | – | 124.2 J/K/mol

[1]
Settings | Triple point temperature [K]
Crystal 2 | 228.4
Crystal 3 | 6.03
